This note sets out measurements from patent EP3064205A1, “Therapeutic use of isomeric forms of 2-(4-chlorophenyl)quinolin-4-yl)(piperidin-2-yl)methanol” (Glionova AB, priority 2015, dated 2016).

Like-named read-outs stand apart in the source and are kept apart here.

One data set deals with Panc-1 cells. In words: APH cell viability assay, 2D culture. Type of data set: cell-based, human. Particulars: Panc-1, 2D culture, 30 µM. From the text: The following well-characterized human pancreatic ductal adenocarcinoma cell lines (ATCC) were used: HPAF II, BxPC-3, MIA-PaCa2 and Panc-1. These cell lines were generated from patient-derived tumors and are widely used model system to study pancreatic cancer (HPAF II: Kim YW, et al. Pancreas 4: 353-362, 1989; BxPC-3: Tan MH, et al. Cancer Invest. 4: 15-23, 1986; MIA-PaCa2: Yunis AA, et al. Int. J. Cancer 19: 128-135, 1977; Pacn-1: Lieber M, et al. Int. J. Cancer 15: 741-747, 1975).
For 2D culture, cells were seeded on flat bottom 96 well plates (Costar) at a concentration of 2500 cells/well in 100 µl phenol red-free RPMI-F12 medium containing 10% FCS. For 3D culture, cells were seeded according to the description for spheroid preparation in phenol-free medium. On day 4 Vacquinol-1 RS (S1) was added at the indicated final concentrations in an extra volume of 10 µl/well and in 8 replicates for each time point. On day 7, an APH assay (See below) was performed. The viability rate was calculated as a percentage of the untreated cells. All data were expressed as the mean ± SD of at least 8 replicates. To confirm the reliability of the APH assay on 2D culture, cell viability was measured using CellTiter-Glo assay (Promega).
The APH assay, which measures the activity of acidic phosphatase in the cells, was optimized for 3D cultures as follows. Only 70µl of medium was removed in order not to suck up the spheres. Then 60µl of PBS was added per well and 100µl of APH buffer (0.1 M sodium acetate pH 5.2 and 0.1 % triton X-100) containing the substrate (2mg/ml p-nitrophenyl phosphate, final pH 4.8 from Thermo Scientific). After 2 hours incubation for the 2D culture and 5 hours for the 3D culture, 10µl of 1 M NaOH was added to stop the APH activity. Absorbance at 405nm was measured within 10 minutes using a FluoStar OPTIMA plate reader (BMG Labtech). Viability rate was calculated as per cent of CTR untreated cells. All data are expressed as the mean ± SD of at least 8 replicates.

Data set [1] can be described thus: Pharmacokinetic evaluation in mice (plasma and brain). Particulars: for Kp / half-life / Tmax / Cmax: male, NMRI, mouse; for Kp: brain/plasma, single oral administration of 20 mg/kg. It is filed as in vivo, male NMRI mice. How it is done:
Compounds S1 and S2 were formulated at 0.4 mg/mL in 7.5% NMP, 10% Kolliphor in 0.9% NaCl (for i.v. administration) and at 2.0 mg/mL in 0.1% Tween 80, 0.5% Na-CMC in water (for p.o. administration).
The pharmacokinetic properties of S1 and S2 were determined in male NMRI mice (Charles River, Germany) following single intravenous (i.v., tail vein, 2 mg/kg) or per oral (p.o, gavage, 20 mg/kg). Light isoflurane anaesthesia was used at i.v. administration, no anaesthesia was used at p.o. administration. Blood samples were kept on ice after sampling and centrigued at +4 °C, 1800 x g for 5 minutes to prepare plasma. Blood and homogenized brain samples were taken from animals at the following nominal time points: 15, 30, and 60 minutes, and 2, 4, 6, 8, 24, 48, 72 and 144 hours after dosing (n=3 samples/time-point). Blood sampling (400-600 microliters) was performed by orbital plexus collection under isoflurane anaesthesia into EDTA plasma tubes (BD Microtainer K2EDTA). Bioanalytical quantification of S1 and S2 was analysed in plasma and brain samples by a UPLC-MS/MS. Pharmacokinetics were calculated by non-compartmental analysis (NCA) from composite (mean) profiles using Phoenix WinNonlin Professional (v 6.3). Nominal sampling times and dose levels have been used for the NCA calculations. All animals dosed with S1 and S2 were systemically exposed to the test compound. The plasma and brain concentrations were detectable and analysed until 144 h.
Brain sampling was performed after the end of blood sampling at the specified time points following euthanization and skull extraction. Brains were weighed and placed in test tubes and placed on wet ice. 4 mL PBS (pH 7.4) per 1 g of brain tissue was added to the test tube and brains were then homogenized using an Ultra-Turrax T25 homogenisator (Setting 2, 9500 rpm, 10s). The homogenates were frozen at -20° C immediately after homogenization.

For `O[C@H](c1cc(-c2ccc(Cl)cc2)nc2ccccc12)[C@@H]1CCCCN1` [S1, (R)-(2-(4-chlorophenyl)quinolin-4-yl)((S)-piperidin-2-yl)methanol], the results for the “decrease in cell viability” value in the data set with Panc-1 cells (24h), in the data set with Panc-1 cells (48h) and in the data set with Panc-1 cells (72h) were 43%, 63% and 70%, respectively. In addition, the “Brain AUC last” value in data set [1] (brain, i.v., 2 mg/kg) is 52.7 µg·h/mL; in data set [1] (brain, p.o., 20 mg/kg) it was 400 µg·h/mL. Further, the “Brain Cmax” value in data set [1] (brain, i.v., 2 mg/kg) is 1.97 µg/mL; in data set [1] (brain, p.o., 20 mg/kg), 4.84 µg/mL. The “Brain tlast” value was found to be 144 h in data set [1] (brain, i.v., 2 mg/kg) and 144 h in data set [1] (brain, p.o., 20 mg/kg). The Kp turned out to be 1.6 in data set [1] (po, 20 mg/kg, read-out: exposure ratio AUC(brain/plasma)) and 2.2 in data set [1] (po, 20 mg/kg, read-out: exposure ratio Cmax(brain/plasma)). Moreover, the half-life is 67 h in data set [1] (iv, brain, i.v., 2 mg/kg, read-out: Brain T1/2 (converted)) and 84 h in data set [1] (iv, plasma, i.v., 2 mg/kg, read-out: Plasma T1/2 (converted)). For the same compound, the time to peak (Tmax) in data set [1] (iv, brain, i.v., 2 mg/kg, read-out: Brain tmax) was found to be 0.25 h; in data set [1] (iv, plasma, i.v., 2 mg/kg, read-out: Plasma tmax) it was 4 h; in data set [1] (po, brain, p.o., 20 mg/kg, read-out: Brain tmax), 8 h; in data set [1] (po, plasma, p.o., 20 mg/kg, read-out: Plasma tmax), 4 h. The Cmax in data set [1] (iv, plasma, 2 mg/kg) was determined as 0.775 µg/mL; in data set [1] (po, plasma, 20 mg/kg), 2.21 µg/mL. Besides, the “Plasma AUC last” value in data set [1] (plasma, i.v., 2 mg/kg) was determined as 62 µg·h/mL; in data set [1] (plasma, p.o., 20 mg/kg), 246 µg·h/mL. The “Plasma tlast” value in data set [1] (plasma, i.v., 2 mg/kg) turned out to be 144 h; in data set [1] (plasma, p.o., 20 mg/kg), 144 h.
